Source: PMC7300003, “Alternative catalytic residues in the active site of Esco acetyltransferases” (Scientific Reports, 2020)

How the values were obtained:
HsESCO1 = molecular target: T1, HsESCO1 (Homo sapiens, UniProt Q5FWF5); experiment: SMC3 acetylation time course, anti-acetyl-Smc3 immunoblot; type: biochemical; conditions: 10 µM AcCoA; acceptor human trimeric or tetrameric cohesin (SMC3 K105/K106); ATP, plasmid DNA, 1 mM MgCl2, pH 7.5, 37 °C
T1 construct: gene ESCO1; full-length, N-terminal His-tag, Sf9 insect cells
T1 sequence (Q5FWF5 1-840): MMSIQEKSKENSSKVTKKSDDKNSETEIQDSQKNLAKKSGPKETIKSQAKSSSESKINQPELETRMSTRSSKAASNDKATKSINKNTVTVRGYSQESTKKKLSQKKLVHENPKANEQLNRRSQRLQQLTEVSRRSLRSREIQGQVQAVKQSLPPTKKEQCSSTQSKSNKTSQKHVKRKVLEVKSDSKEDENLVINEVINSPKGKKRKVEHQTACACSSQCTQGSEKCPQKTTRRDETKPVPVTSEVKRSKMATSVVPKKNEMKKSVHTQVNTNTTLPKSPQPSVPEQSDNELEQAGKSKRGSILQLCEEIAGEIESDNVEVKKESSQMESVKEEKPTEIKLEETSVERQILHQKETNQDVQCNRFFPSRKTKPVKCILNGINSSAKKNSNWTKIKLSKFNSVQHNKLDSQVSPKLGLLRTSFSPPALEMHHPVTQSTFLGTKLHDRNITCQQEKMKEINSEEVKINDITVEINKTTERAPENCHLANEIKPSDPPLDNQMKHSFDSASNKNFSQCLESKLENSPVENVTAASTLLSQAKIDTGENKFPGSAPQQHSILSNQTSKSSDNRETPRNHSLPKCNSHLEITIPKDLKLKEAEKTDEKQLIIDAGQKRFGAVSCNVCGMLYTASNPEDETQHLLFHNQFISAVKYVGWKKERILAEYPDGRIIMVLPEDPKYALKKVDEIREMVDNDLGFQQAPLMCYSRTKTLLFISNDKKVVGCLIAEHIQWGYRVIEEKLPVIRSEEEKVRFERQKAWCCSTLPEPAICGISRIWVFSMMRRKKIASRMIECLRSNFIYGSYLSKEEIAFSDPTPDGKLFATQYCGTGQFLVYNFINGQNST

MmEsco2^368–592 = molecular target: T2, MmEsco2^368–592 (Mus musculus, UniProt Q8CIB9); experiment: X-ray crystallography, […] Å (zinc SAD); type: binding; conditions: natively bound (co-purified) CoA; active-site groove; pH 8 crystallisation
T2 construct: gene Esco2; residues 368-592 (C2H2 zinc finger and acetyltransferase domain), C-terminal His-tag, Hi5 insect cells
T2 sequence (Q8CIB9 368-592): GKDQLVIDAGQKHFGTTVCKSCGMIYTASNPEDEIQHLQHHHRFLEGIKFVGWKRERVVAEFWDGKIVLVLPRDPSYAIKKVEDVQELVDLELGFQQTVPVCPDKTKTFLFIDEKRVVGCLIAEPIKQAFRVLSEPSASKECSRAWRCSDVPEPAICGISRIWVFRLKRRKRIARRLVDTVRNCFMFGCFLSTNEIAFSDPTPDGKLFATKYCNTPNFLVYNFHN

| Structure (SMILES) | SMC3 acetylation time course, anti-acetyl-Smc3 immunoblot (HsESCO1) | X-ray crystallography, 1.8 Å (zinc SAD) (MmEsco2^368–592) |
| --- | --- | --- |
| CC(=O)SCCNC(=O)CCNC(=O)[C@H](O)C(C)(C)COP(=O)(O)OP(=O)(O)OC[C@H]1O[C@@H](n2cnc3c(N)ncnc32)[C@H](O)[C@@H]1OP(=O)(O)O [AcCoA] | The purified tetrameric cohesin complex was incubated with HsESCO1 and AcCoA |  |
| CC(C)(COP(=O)(O)OP(=O)(O)OC[C@H]1O[C@@H](n2cnc3c(N)ncnc32)[C@H](O)[C@@H]1OP(=O)(O)O)[C@@H](O)C(=O)NCCC(=O)NCCS [CoA] |  | The CoA cofactor is natively present in a complex with MmEsco2 in a groove |
